According to patent US20230000813A1, “COMPOUND FOR THE TREATMENT OF BOVINE OR SWINE RESPIRATORY DISEASE” (Intervet Inc., priority 2016, published 2023):
Values after ≈ are worked out from the molar mass of the structure shown.

Assays:
Assay in all cases: MIC, broth-microdilution (CLSI VET01-A4)
Type in all cases: cell-based
[1] = tested on: Mannheimia haemolytica MH 13065 (XB0446-6003.9, BRD field isolate)
Protocol: (§1) The Minimum inhibitory concentrations (MIC) of compounds according to the invention for a number of veterinary bacterial pathogens were determined by the broth-microdilution method according to CLSI document VET01-A4.
(§2) Microdilution trays containing a doubling dilution series of the test compound were used for the tests. The MIC results were interpreted according to the CLSI documents VET01-S3. The lowest concentration of compound at which no visible growth (i.e. no turbidity) detected by the unaided eye was recorded as the MIC.

[2] = tested on: Mannheimia haemolytica MH 13093 (XB0472-6014.1, BRD field isolate)
Protocol: as §1, §2

[3] = tested on: Pasteurella multocida PM 6391 (ATCC 43137, reference strain); settings: Pasteurella multocida PM 6391; for MIC: read-out: MIC PM 6391
Protocol: as §1, §2
(§3) The Minimum inhibitory concentrations (MIC) of compounds according to the invention were determined by the broth-microdilution method according to CLSI document VET01-A4.
(§4) Microdilution trays containing a doubling dilution series of the test compound were used for the tests.
(§5) The MIC results were interpreted according to the CLSI documents VET01-S3. The lowest concentration of compound at which no visible growth (i.e. no turbidity) detected by the unaided eye was recorded as the MIC.

[4] = tested on: Mannheimia haemolytica MH 6374 (ATCC 33396, reference strain); settings: Mannheimia haemolytica MH 6374; for MIC: read-out: MIC MH 6374
Protocol: as §1, §2, §3, §4, §5

[5] = tested on: Pasteurella multocida PM 6267 (P 2225 (L386), reference strain, mouse infection strain); settings: Pasteurella multocida PM 6267; for MIC: read-out: MIC PM 6267
Protocol: as §1, §2, §3, §4, §5

[6] = tested on: Pasteurella multocida PM 10775 (080130003051, BRD field isolate); settings: Pasteurella multocida PM 10775
Protocol: as §1, §2, §3, §4, §5

[7] = tested on: Mannheimia haemolytica MH 12587 (1071, BRD field isolate, macrolide-resistance: erm+, E+); settings: Mannheimia haemolytica MH 12587, macrolide-resistant
Protocol: as §1, §2, §3, §4, §5

[8] = tested on: Mannheimia haemolytica MH 6357 (M7/2, reference strain, cattle infection strain); settings: Mannheimia haemolytica MH 6357; for MIC: read-out: MIC MH 6357
Protocol: as §1, §2, §3, §4, §5

[9] = tested on: Pasteurella multocida PM 12080 (IV102277-0093, BRD field isolate); settings: Pasteurella multocida PM 12080; for MIC: read-out: MIC PM 12080
Protocol: as §1, §2, §3, §4, §5

[10] = tested on: Mannheimia haemolytica MH 10720 (154, BRD field isolate); settings: Mannheimia haemolytica MH 10720; for MIC: read-out: MIC MH 10720
Protocol: as §1, §2, §3, §4, §5

| SMILES | MIC [1] [µM] | MIC [2] [µM] | MIC PM 6391 [3] | MIC [4] [µM] | MIC PM 6267 [5] | MIC PM 10775 [6] | MIC MH 12587 [7] [µM] | MIC [8] [µM] | MIC PM 12080 [9] | MIC [3] [µM] | MIC [5] [µM] | MIC [9] [µM] | MIC MH 13065 [1] | MIC MH 6374 [4] | MIC [10] [µM] | MIC MH 10720 [10] | MIC MH 13093 [2] | MIC MH 6357 [8] |
| --- | --- | --- | --- | --- | --- | --- | --- | --- | --- | --- | --- | --- | --- | --- | --- | --- | --- | --- |
| C[C@@H](O)[C@H](NC(=O)c1ccc(C#Cc2ccc(CNCc3ccco3)nc2)cc1)C(=O)NO [Compound 424] | 0.4 (≈ 0.179 µg/mL) | 0.8 (≈ 0.359 µg/mL) | <=0.1 μM | 1.6 (≈ 0.718 µg/mL) | <=0.1 μM | <=0.1 μM | 1.6 (≈ 0.718 µg/mL) | 0.8 (≈ 0.359 µg/mL) | <=0.1 μM | – | – | – | – | – | – | – | – | – |
| C=CCNCc1ccc(C#Cc2ccc(C(=O)N[C@H](C(=O)NO)[C@@H](C)O)cc2)cn1 [C. 415] | 0.4 (≈ 0.163 µg/mL) | 1.6 (≈ 0.654 µg/mL) | – | 1.6 (≈ 0.654 µg/mL) | – | <=0.1 μM | 1.6 (≈ 0.654 µg/mL) | 0.8 (≈ 0.327 µg/mL) | – | 0.2 (≈ 0.0817 µg/mL) | 0.2 (≈ 0.0817 µg/mL) | 0.4 (≈ 0.163 µg/mL) | – | – | – | – | – | – |
| Cc1ccc(CNCc2ccc(C#Cc3ccc(C(=O)N[C@H](C(=O)NO)[C@@H](C)O)cc3)s2)cc1 [Compound 411] | – | 0.2 (≈ 0.0955 µg/mL) | <=0.1 μM | – | <=0.1 μM | <=0.1 μM | 0.4 (≈ 0.191 µg/mL) | 0.2 (≈ 0.0955 µg/mL) | <=0.1 μM | – | – | – | <=0.1 μM | <=0.1 μM | – | – | – | – |
| C[C@@H](O)[C@H](NC(=O)c1ccc(C#Cc2ccc(CNCc3cccs3)nc2)cc1)C(=O)NO [Compound 425] | 0.4 (≈ 0.186 µg/mL) | 0.8 (≈ 0.372 µg/mL) | <=0.1 μM | 0.8 (≈ 0.372 µg/mL) | <=0.1 μM | <=0.1 μM | 0.8 (≈ 0.372 µg/mL) | 0.8 (≈ 0.372 µg/mL) | <=0.1 μM | – | – | – | – | – | – | – | – | – |
| C[C@@H](O)[C@H](NC(=O)c1ccc(C#Cc2ccc(CNCc3ccncc3)s2)cc1)C(=O)NO [Compound 401] | 0.4 (≈ 0.186 µg/mL) | 0.8 (≈ 0.372 µg/mL) | – | 0.8 (≈ 0.372 µg/mL) | <=0.1 μM | <=0.1 μM | 0.8 (≈ 0.372 µg/mL) | 0.4 (≈ 0.186 µg/mL) | – | 0.2 (≈ 0.0929 µg/mL) | – | 0.2 (≈ 0.0929 µg/mL) | – | – | – | – | – | – |
| CC(C)(N)C(NC(=O)c1ccc(C#Cc2ccc(CNCc3cccnc3)s2)cc1)C(=O)NO (stereo not drawn) [Compound 532] | 0.8 (≈ 0.382 µg/mL) | 1.6 (≈ 0.764 µg/mL) | <=0.1 μM | 0.8 (≈ 0.382 µg/mL) | – | – | 1.6 (≈ 0.764 µg/mL) | 1.6 (≈ 0.764 µg/mL) | <=0.1 μM | – | 1.6 (≈ 0.764 µg/mL) | – | – | – | 0.2 (≈ 0.0955 µg/mL) | – | – | – |
| CC(C)(N)C(NC(=O)c1ccc(C#Cc2ccc(CNCc3cccs3)s2)cc1)C(=O)NO (stereo not drawn) [Compound 536] | 0.4 (≈ 0.193 µg/mL) | 0.8 (≈ 0.386 µg/mL) | <=0.1 μM | 0.2 (≈ 0.0965 µg/mL) | – | – | 0.8 (≈ 0.386 µg/mL) | 0.8 (≈ 0.386 µg/mL) | <=0.1 μM | – | 0.8 (≈ 0.386 µg/mL) | – | – | – | – | <=0.1 μM | – | – |
| C[C@@H](O)[C@H](NC(=O)c1ccc(C#Cc2ccc(CNCC#N)s2)cc1)C(=O)NO [Compound 406] | 0.8 (≈ 0.33 µg/mL) | 1.6 (≈ 0.66 µg/mL) | – | 1.6 (≈ 0.66 µg/mL) | <=0.1 μM | <=0.1 μM | 1.6 (≈ 0.66 µg/mL) | 1.6 (≈ 0.66 µg/mL) | – | 0.2 (≈ 0.0825 µg/mL) | – | 0.4 (≈ 0.165 µg/mL) | – | – | – | – | – | – |
| Cc1ccc(CNCc2ccc(C#Cc3ccc(C(=O)NC(C(=O)NO)C(C)(C)N)cc3)s2)cc1 (stereo not drawn) [Compound 537] | 0.8 (≈ 0.393 µg/mL) | 1.6 (≈ 0.785 µg/mL) | – | 0.8 (≈ 0.393 µg/mL) | – | – | 1.6 (≈ 0.785 µg/mL) | 0.8 (≈ 0.393 µg/mL) | <=0.1 μM | 0.2 (≈ 0.0981 µg/mL) | 1.6 (≈ 0.785 µg/mL) | – | – | – | 0.2 (≈ 0.0981 µg/mL) | – | – | – |
| COc1ccc(CNCc2ccc(C#Cc3ccc(C(=O)NC(C(=O)NO)C(C)(C)N)cc3)s2)cc1 (stereo not drawn) [Compound 526] | 0.8 (≈ 0.405 µg/mL) | 1.6 (≈ 0.811 µg/mL) | – | 0.4 (≈ 0.203 µg/mL) | – | – | 1.6 (≈ 0.811 µg/mL) | 0.8 (≈ 0.405 µg/mL) | – | 0.2 (≈ 0.101 µg/mL) | 1.6 (≈ 0.811 µg/mL) | 0.2 (≈ 0.101 µg/mL) | – | – | 0.2 (≈ 0.101 µg/mL) | – | – | – |
| C[C@@H](O)[C@H](NC(=O)c1ccc(C#Cc2ccc(CNCc3cccnc3)s2)cc1)C(=O)NO [Compound 407] | 0.2 (≈ 0.0929 µg/mL) | 0.4 (≈ 0.186 µg/mL) | <=0.1 μM | 0.4 (≈ 0.186 µg/mL) | <=0.1 μM | <=0.1 μM | 0.4 (≈ 0.186 µg/mL) | 0.4 (≈ 0.186 µg/mL) | <=0.1 μM | – | – | – | – | – | – | – | – | – |
| C[C@@H](O)[C@H](NC(=O)c1ccc(C#Cc2ccc(CNCc3cccs3)s2)cc1)C(=O)NO [Compound 410] | – | – | <=0.1 μM | – | <=0.1 μM | <=0.1 μM | 0.2 (≈ 0.0939 µg/mL) | – | <=0.1 μM | – | – | – | <=0.1 μM | <=0.1 μM | – | – | <=0.1 μM | <=0.1 μM |
| CC(C)(N)C(NC(=O)c1ccc(C#Cc2ccc(CNCc3ccncc3)s2)cc1)C(=O)NO (stereo not drawn) [Compound 527] | 0.8 (≈ 0.382 µg/mL) | 1.6 (≈ 0.764 µg/mL) | <=0.1 μM | 0.8 (≈ 0.382 µg/mL) | – | – | 0.8 (≈ 0.382 µg/mL) | 0.8 (≈ 0.382 µg/mL) | <=0.1 μM | – | 1.6 (≈ 0.764 µg/mL) | – | – | – | 0.2 (≈ 0.0955 µg/mL) | – | – | – |
| C=CCNCc1ccc(C#Cc2ccc(C(=O)NC(C(=O)NO)C(C)(C)N)cc2)s1 (stereo not drawn) [C. 522] | 0.8 (≈ 0.341 µg/mL) | 1.6 (≈ 0.682 µg/mL) | – | 0.4 (≈ 0.171 µg/mL) | – | – | 1.6 (≈ 0.682 µg/mL) | 1.6 (≈ 0.682 µg/mL) | <=0.1 μM | 0.2 (≈ 0.0853 µg/mL) | 1.6 (≈ 0.682 µg/mL) | – | – | – | 0.2 (≈ 0.0853 µg/mL) | – | – | – |
| CC(C)(N)C(NC(=O)c1ccc(C#Cc2ccc(CNCc3ccccn3)s2)cc1)C(=O)NO (stereo not drawn) [Compound 534] | 0.8 (≈ 0.382 µg/mL) | 1.6 (≈ 0.764 µg/mL) | <=0.1 μM | 0.8 (≈ 0.382 µg/mL) | – | – | 1.6 (≈ 0.764 µg/mL) | 0.8 (≈ 0.382 µg/mL) | <=0.1 μM | – | 1.6 (≈ 0.764 µg/mL) | – | – | – | 0.2 (≈ 0.0955 µg/mL) | – | – | – |
| CC(C)(N)C(NC(=O)c1ccc(C#Cc2ccc(CNCc3ccnc(Cl)c3)s2)cc1)C(=O)NO (stereo not drawn) [Compound 533] | 0.8 (≈ 0.41 µg/mL) | 0.8 (≈ 0.41 µg/mL) | – | 0.8 (≈ 0.41 µg/mL) | – | – | 1.6 (≈ 0.819 µg/mL) | 0.8 (≈ 0.41 µg/mL) | <=0.1 μM | 0.2 (≈ 0.102 µg/mL) | 1.6 (≈ 0.819 µg/mL) | – | – | – | 0.2 (≈ 0.102 µg/mL) | – | – | – |
